Experimental data published in publication PMC7956476, “Quinoline Functionalized Schiff Base Silver (I) Complexes: Interactions with Biomolecules and In Vitro Cytotoxicity, Antioxidant and Antimicrobial Activities” (Molecules, 2021).

Legend:
[1] = test system: Escherichia coli ATCC 25922; test: Minimum inhibitory concentration (MIC), spotting on Müeller–Hinton agar; assay type: cell-based; conditions: Gram − Ve; E. coli; 37 °C, 18 h
Procedure: (§1) Sterilized Nutrient agar medium was first prepared by dissolving 38 g of Müeller–Hinton agar (MHA) (Biolab, Midrand, Africa) in distilled water (1 L). […] The cooled Agar medium was poured in Petri dishes while ensuring a uniform 4 mm depth of the medium and cooling further to ambient temperature.
(§2) These bacteria were inoculated in a sterilized Nutrient Broth (NB) (Biolab, Midrand, Africa) through streak plate technique and incubated at 37 °C for 18 h. The nutrient broth was sterilized by dissolving 1.3 g in distilled water (100 mL). Ca. 10 mL of the nutrient broth was transferred into a cotton wool-plugged test tubes and wrapped with an aluminium foil. […] Following this was the isolation of a single colony of the bacteria and inoculated into a 10 mL sterile NB which was then incubated in a shaking incubator at 37 °C for 18 h. Each of the bacteria strain concentrations was adjusted with sterile distilled water to get a final concentration of 1.5 × 10^8 cfu/mL, i.e., 0.5 Mc Farland’s Standard using a densitometer (Mc Farland Latvia). The bacteria were lawn inoculated on the set MHA Petri dishes using a sterile cotton swab. Screening of L1–L5 and Q1–Q15 for antibacterial activity was first carried out by spotting 5 µL of their solution (prepared from the dissolution of 1000 µg of the L1–L5 and Q1–Q15 in 1 mL dimethyl sulfoxide (DMSO)) on an MHA petri dish and incubated at 37 °C for 18 h. The antibacterial activity was determined by looking out for a clear zone at the spotting point.

[2] = test system: Klebsiella pneumoniae ATCC 31488; test: as above; assay type: cell-based; conditions: versus the standard (0.8 µg/mL)
Procedure: as §1, §2

[3] = test system: Salmonella typhimurium ATCC 14026; test: as above; assay type: cell-based; conditions: Gram − Ve; S. typhi; 37 °C, 18 h
Procedure: as §1, §2

[4] = test system: Staphylococcus aureus ATCC 25923; test: as above; assay type: cell-based; conditions: Gram + Ve; S. aureus; 37 °C, 18 h
Procedure: as §1, §2

[5] = test system: Staphylococcus aureus ATCC 700699 (methicillin-resistant); test: as above; assay type: cell-based; conditions: Gram + Ve; methicillin-resistant S. aureus; 37 °C, 18 h
Procedure: as §1, §2

[6] = Ferric reducing antioxidant power (FRAP) assay; assay type: biochemical; conditions: done in triplicate
Text: Antioxidants are important in protecting the human body against damage by reactive oxygen species (ROS). Accumulation of ROS in the cells may lead to damage of the DNA, RNA, and proteins which subsequently leads to several physiological disorders such as cardiovascular disease, diabetes, rheumatism, atherosclerosis, cancer, aging and cell death. […] The free radical scavenging ability of all ligands and complexes in this study were investigated using ferric reducing antioxidant power (FRAP). In antioxidant studies, FRAP assay is often preferred because it is simple, fast, economical, and direct in antioxidant measurement. FRAP assay is based on the electron-donating ability of an antioxidant compound. This involves the reduction of a colorless Fe^3+ tripyridyltriazine complex (Fe^3+ (TPTZ)) to an intense blue-colored Fe^2+ tripyridyltriazine complex (Fe^2+ (TPTZ)) by the electron-donating antioxidants at low pH [69]. The reducing power is to determine the reductive ability of the test compounds.
Antioxidant activity studies of L1–L5 and Q1–Q15 were done using ferric reducing antioxidant power (FRAP) assay. The ferric reducing antioxidant power assay is often used to evaluate the ability of an antioxidant to donate an electron. […] The resulting mixture was incubated at 50 °C for 20 min, and 2.5 mL of 10% trichloroacetic acid was added to acidify the mixture. After that, 1 mL of the acidified mixture was added to 1 mL of distilled water and 0.5 mL of 0.1% FeCl3. The absorbance of the resulting solution was then measured at 700 nm. The antioxidant power of the compounds was expressed as a percentage of ferric reducing antioxidant power Ascorbic acid equivalent, as shown in Equation (4). (4) % FRAP =Absorbance of Absorbance of Sample/Absorbance of Ascorbic Acid ×100

calf thymus DNA (CT-DNA) = test: CT-DNA electronic absorption titration (Wolfe–Shimer); assay type: binding
Procedure: The interaction of the L1–L5 and complexes Q1–Q15 with calf thymus-DNA was carried out in a Phosphate buffer saline solution pH 7.2 stored at 4 °C. The DNA stock solution was prepared by dissolving CT-DNA sodium salt in Phosphate buffer saline solution with continuous stirring overnight. It was filtered and stored at 4 °C and used within four days. […] A fixed amount of the L1–L5 and complexes Q1–Q15 (50 µM) were prepared by dissolving an appropriate amount in DMSO. […] Therefore, in all the experimental of the interaction of L1–L5 and complexes Q1–Q15 with biomolecules, the final concentration of DMSO in the incubation mixture was ~2% (v/v).
The binding modes of L1–L5 and complexes Q1–Q15 to CT-DNA were characterized through electronic absorption titration by varying concentrations of CT-DNA (0–30 µM) in phosphate buffer saline solution against fixed concentrations (20 µM) of L1–L5 and complexes Q1–Q15. […] The absorbance of CT-DNA is cancelled by adding equivalent amounts of CT-DNA to both the tested compounds and the reference solutions.

CT-DNA-EB adduct = test: Fluorescence competitive displacement of ethidium bromide from CT-DNA; assay type: binding, calf; conditions: for CT-DNA-EB-Complex Ksv (M^−1) × 10^4: Stern–Volmer quenching constant, EB displacement, 25 °C; for CT-DNA-EB-Complex Kq (M^−1S^−1) × 10^12: bimolecular quenching constant, Ksv = Kqτo, τo 10^−8 s; for CT-DNA-EB-Complex Kbin (M^−1) × 10^5: binding constant from double-logarithmic plot
Text: The Stern–Volmer plot approach was used based on the fact that the Stern–Volmer plots for Q1–Q15 (Figure 5c), were linear an indication of only one mechanism for the quenching fluorescence, i.e., either dynamic or static. […] (1) Ksv=Kqτo where Ksv, Kq, and τo represent Stern–Volmer quenching constant, bimolecular quenching constant, and an average lifetime of the fluorophore in the absence of the quencher, respectively. τₒ normally takes about 10^−8 s in biomacromolecules.
The double-logarithmic Equation (2) was used in determining the binding constant of complexes Q1–Q15 and CT-DNA. (2) logFo−F/F=logKb+n logQ
A competitive displacement study was carried out using fluorescence spectroscopy between CT-DNA pre-treated with ethidium bromide (EB) and complexes Q1–Q15 to establish the complexes′ actual mode of binding to CT-DNA. […] The competitive luminescence displacement assay was done using a modified method. Pre-treated 15 µM solution of EB with 15 µM of CT-DNA was prepared in a phosphate buffer of pH 7.2 and left to equilibrate for 30 min. Keeping CT-DNA-EB concentrations constant, different concentrations (0–20 µM) of the complexes were added at 8 min incubation interval at room temperature. The fluorescence quenching ability of CT-DNA bound EB by the complexes were recorded in the wavelength range of 530–700 nm with an excitation wavelength at 525 nm at 25 °C. (6) Fo/F=1+KSVQ=1+KqτoQ
A Stern–Volmer (Equation (6)) was used to evaluate the CT-DNA-EB fluorescence quenching of the complexes. Where Fo and F denote the relative fluorescence intensities of CT-DNA in the absence and presence of the quencher, Ksv, Stern–Volmer quenching constant, [Q], quencher concentration, Kq, bimolecular quenching constant and τo, average lifetime of the fluorophore in the absence of the quencher which is typically equal to 10^−8 s in biomacromolecules.

[7] = molecular target: bovine serum albumin (BSA) (Bos taurus, UniProt P02769); test: Albumin binding by absorption spectroscopy titration
Text: Bovine serum albumin (BSA) was used as the protein standard in this study because of its close resemblance to human serum albumin (HSA), its stability, high solubility, neutrality in many biochemical reactions and low cost. In protein binding study, absorption spectroscopy titration is a known method used in studying the conformational changes in proteins, and this protein is characterized by an intense absorbance peak at 280 nm depicting the microenvironment around tyrosine and tryptophan residue polarity.
The absorbance assay of albumin binding is a very simple method used in identifying the conformational changes in protein. […] A stock solution of bovine serum albumin (BSA) was prepared by dissolving an appropriate amount of BSA in phosphate buffer saline solution (pH 7.2) under constant stirring for 1 h at 25 °C. It was kept at 4 °C and used within four days. […] The stock solution of the complex was prepared by dissolving 1 mmol of the complexes in DMSO. The absorption titration assay was done by adding different concentrations (0–10 µM) of the complexes to a constant BSA concentration (6 µM). The sample solution was incubated after each addition of the concentrations for 10 min at 25 °C before recording the absorbance at λmax 280 nm.

[8] = test system: Pseudomonas aeruginosa ATCC 27853; test: Minimum inhibitory concentration (MIC), spotting on Müeller–Hinton agar; assay type: cell-based; conditions: Gram − Ve; P. aeruginosa; 37 °C, 18 h
Procedure: as §1, §2

[9] = intrinsic binding constant, absorption titration, PBS pH 7.2

Chain of bovine serum albumin (BSA) (P02769 25-607): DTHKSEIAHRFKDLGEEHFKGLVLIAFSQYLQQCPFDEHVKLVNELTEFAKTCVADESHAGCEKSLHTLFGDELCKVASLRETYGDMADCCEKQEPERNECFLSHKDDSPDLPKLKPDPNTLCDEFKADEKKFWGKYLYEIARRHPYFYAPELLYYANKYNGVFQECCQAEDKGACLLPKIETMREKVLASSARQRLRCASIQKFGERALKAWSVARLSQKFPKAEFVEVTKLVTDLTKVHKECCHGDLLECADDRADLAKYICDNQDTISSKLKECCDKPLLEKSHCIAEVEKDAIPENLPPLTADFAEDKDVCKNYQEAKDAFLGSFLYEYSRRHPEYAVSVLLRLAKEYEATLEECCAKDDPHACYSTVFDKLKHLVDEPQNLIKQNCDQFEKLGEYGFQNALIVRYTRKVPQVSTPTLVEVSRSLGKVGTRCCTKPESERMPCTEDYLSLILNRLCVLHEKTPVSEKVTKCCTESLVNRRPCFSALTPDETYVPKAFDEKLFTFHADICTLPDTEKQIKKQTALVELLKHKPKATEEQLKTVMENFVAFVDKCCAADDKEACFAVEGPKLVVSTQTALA

Compound | Minimum inhibitory concentration, EC [1] | activity times higher than the standard against K. pneumoniae [2] | Minimum inhibitory concentration, ST [3] | Minimum inhibitory concentration, SA [4] | Minimum inhibitory concentration, MRSA [5] | Antioxidant (IC50 mg/mL) FRAP [6] | CT-DNA-Cmp. Kb (M^−1) × 10^5 (calf thymus DNA (CT-DNA); [9]) | CT-DNA-EB-Complex Ksv (M^−1) × 10^4 (CT-DNA-EB adduct) | CT-DNA-EB-Complex Kq (M^−1S^−1) × 10^12 (CT-DNA-EB adduct) | CT-DNA-EB-Complex Kbin (M^−1) × 10^5 (CT-DNA-EB adduct) | Protein-Complex Kb (M^−1) × 10^4 [7] | Minimum inhibitory concentration, PA [8] | CT-DNA-Cmp. Kb (M^−1) × 10^5 (calf thymus DNA (CT-DNA); pH 7.2)
C(=NCc1cccs1)c1ccc2ccccc2n1.C(=NCc1cccs1)c1ccc2ccccc2n1.O=[N+]([O-])[O-].[Ag+] [Complex Q5, [Ag(L5)2]NO3] | 1.6 µg/mL | 32 times | 12.5 µg/mL | 50 µg/mL | 100 µg/mL | 2.04 ± 0.0032 mg/mL | 4.00 (M^−1) × 10^5 | 2.31 (M^−1) × 10^4 | 2.31 (M^−1S^−1) × 10^12 | 1.03 (M^−1) × 10^5 | 5.95 (M^−1) × 10^4 | – | –
Cc1ccc(N=Cc2ccc3ccccc3n2)cc1.Cc1ccc(N=Cc2ccc3ccccc3n2)cc1.O=S(=O)([O-])C(F)(F)F.[Ag+] [Complex Q14, [Ag(L4)2]CF3SO3] | 25 µg/mL | – | 50 µg/mL | 50 µg/mL | 1000 µg/mL | 3.55 ± 0.022 mg/mL | 3.33 (M^−1) × 10^5 | 2.98 (M^−1) × 10^4 | 2.98 (M^−1S^−1) × 10^12 | 5.31 (M^−1) × 10^5 | 7.50 (M^−1) × 10^4 | ~0.8 µg/mL | –
O=[N+]([O-])[O-].[Ag+] [AgNO3, silver nitrate, reference compound] | 0.8 µg/mL | – | 1000 µg/mL | 3.125 µg/mL | 0.2 µg/mL | 1.43 ± 0.03 mg/mL | – | 3.12 (M^−1) × 10^4 | 3.12 (M^−1S^−1) × 10^12 | 4.50 (M^−1) × 10^5 | 4.49 (M^−1) × 10^4 | 12.5 µg/mL | 3.00 (M^−1) × 10^5
Clc1ccc(N=Cc2ccc3ccccc3n2)cc1.Clc1ccc(N=Cc2ccc3ccccc3n2)cc1.O=S(=O)([O-])C(F)(F)F.[Ag+] [Complex Q13, [Ag(L3)2]CF3SO3] | 25 µg/mL | – | 50 µg/mL | 25 µg/mL | 50 µg/mL | 2.22 ± 0.0055 mg/mL | 4.29 (M^−1) × 10^5 | 3.33 (M^−1) × 10^4 | 3.33 (M^−1S^−1) × 10^12 | 5.74 (M^−1) × 10^5 | 2.89 (M^−1) × 10^4 | 12.5 µg/mL | –
O=[N+]([O-])[O-].[Ag+].c1ccc2nc(-c3nc4ccccc4s3)ccc2c1.c1ccc2nc(-c3nc4ccccc4s3)ccc2c1 [Complex Q2, [Ag(L2)2]NO3] | 25 µg/mL | – | 50 µg/mL | 25 µg/mL | 50 µg/mL | 1.10 ± 0.0044 mg/mL | 3.00 (M^−1) × 10^5 | 2.68 (M^−1) × 10^4 | 2.68 (M^−1S^−1) × 10^12 | 5.03 (M^−1) × 10^5 | 7.97 (M^−1) × 10^4 | 12.5 µg/mL | –
